Patent US20100267561A1, “HERBICIDAL PYRIDAZINONE DERIVATIVES” (priority 2007, published 2010)

Key:
Test in all cases: Test B pre-/postemergence plant response
Type in all cases: in vivo
[1] = system: corn (Zea mays)
Outline: (§1)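 Visual scoring from 0 (no effect) to 100 (complete control) against untreated controls was done 13 to 15 days after greenhouse treatment. Chemicals were formulated in a surfactant-containing non-phytotoxic solvent and applied to soil preemergence or to 1- to 4-leaf (2-18 cm) plants postemergence.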

[2] = system: pigweed (Amaranthus retroflexus)
Outline: as §1

[3] = system: surinam grass (Brachiaria decumbens)
Outline: as §1

[4] = system: green foxtail (Setaria viridis)
Outline: as §1

[5] = system: johnsongrass (Sorghum halepense)
Outline: as §1

[6] = system: catchweed bedstraw (Galium aparine); conditions: Preemergence
Outline: as §1

[7] = system: blackgrass (Alopecurus myosuroides)
Outline: as §1

[8] = system: morningglory (Ipomoea coccinea)
Outline: as §1

[9] = system: giant foxtail (Setaria faberii)
Outline: as §1

[10] = system: eastern black (E.B.) nightshade (Solanum ptycanthum); conditions: Preemergence
Outline: as §1

[11] = system: kochia (Kochia scoparia)
Outline: as §1

[12] = system: downy bromegrass (Bromus tectorum)
Outline: as §1

[13] = system: common (oilseed) sunflower (Helianthus annuus); conditions: Preemergence
Outline: as §1

[14] = system: woolly cupgrass (Eriochloa villosa)
Outline: as §1

[15] = 8 g ai/ha, postemergence, 0-100 scale
[16] = Postemergence, 16 g ai/ha, scale 0 to 100
[17] = Postemergence, 31 g ai/ha, scale 0 to 100
[18] = Postemergence, 62 g ai/ha, scale 0 to 100, 0 no effect, 100 complete control
[19] = Preemergence, 31 g ai/ha, scale 0 to 100 (0 no effect, 100 complete control)
[20] = Preemergence, 62 g ai/ha, 0 to 100 scale, 0 no effect, 100 complete control
[21] = Preemergence, 8 g ai/ha, scale 0 to 100
[22] = Preemergence, 16 g ai/ha, scale 0 to 100
[23] = 16 g ai/ha, postemergence, 0-100 scale
[24] = 31 g ai/ha, scale 0 to 100 (0 no effect, 100 complete control)
[25] = 62 g ai/ha, 0 to 100 scale, 0 no effect, 100 complete control
[26] = Preemergence, 8 g ai/ha, scale 0 to 100 (0 no effect, 100 complete control)
[27] = 8 g ai/ha, scale 0 to 100 (0 no effect, 100 complete control)

CCCc1cc(-c2ccc(Cl)cc2)nn1-c1c(O)cnn(C)c1=O [Compound 76]
40: Foxtail, Green plant response rating [4, 21] | Blackgrass plant response rating [7, 21] | Blackgrass plant response rating [7, 22]
75: Corn plant response rating [1, 15] | Plant response rating, Corn [1, 19] | Johnsongrass plant response rating [5, 23] | Foxtail, Giant plant response rating [9, 15] | Cupgrass, Woolly plant response rating [14, 22]
90: Surinam Grass plant response rating [3, 23] | Surinam Grass plant response rating [3, 22] | Plant response rating, Foxtail, Green [4, 19] | Plant response rating, Foxtail, Green [4, 20] | Plant response rating, Blackgrass [7, 20] | Plant response rating, Foxtail, Giant [9, 19] | Plant response rating, Cupgrass, Woolly [14, 18] | Plant response rating, Cupgrass, Woolly [14, 19]
20: Plant response rating, Bromegrass, Downy [12, 18]
65: Surinam Grass plant response rating [3, 15] | Surinam Grass plant response rating [3, 21] | Foxtail, Green plant response rating [4, 15] | Foxtail, Green plant response rating [4, 22] | Johnsongrass plant response rating [5, 15] | Plant response rating, Cupgrass, Woolly [14, 16]
80: Plant response rating, Blackgrass [7, 19]
85: Plant response rating, Corn [1, 16] | Plant response rating, Corn [1, 20] | Plant response rating, Foxtail, Green [4, 16] | Plant response rating, Johnsongrass [5, 20] | Plant response rating, Blackgrass [7, 16] | Plant response rating, Foxtail, Giant [9, 16] | Plant response rating, Cupgrass, Woolly [14, 17]
0: Corn plant response rating [1, 21] | Pigweed plant response rating [2, 15] | Pigweed plant response rating [2, 23] | Plant response rating, Pigweed [2, 17] | Plant response rating, Pigweed [2, 18] | Plant response rating, Pigweed [2, 19] | Plant response rating, Pigweed [2, 20] | Pigweed plant response rating [2, 21] | Pigweed plant response rating [2, 22] | Johnsongrass plant response rating [5, 21] | Johnsongrass plant response rating [5, 22] | Plant response rating, Galium [6, 24] | Plant response rating, Galium [6, 25] | Galium plant response rating ([6]; 8 g ai/ha, scale 0 to 100) | Galium plant response rating ([6]; 16 g ai/ha, scale 0 to 100) | Morningglory plant response rating [8, 15] | Morningglory plant response rating [8, 23] | Plant response rating, Morningglory [8, 17] | Plant response rating, Morningglory [8, 18] | Plant response rating, Morningglory [8, 19] | Plant response rating, Morningglory [8, 20] | Morningglory plant response rating [8, 21] | Morningglory plant response rating [8, 22] | Foxtail, Giant plant response rating [9, 21] | Plant response rating, Nightshade, E. B. [10, 24] | Plant response rating, Nightshade, E. B. [10, 25] | Nightshade, E. B. plant response rating ([10]; 8 g ai/ha, scale 0 to 100) | Nightshade, E. B. plant response rating ([10]; 16 g ai/ha, scale 0 to 100) | Kochia plant response rating [11, 15] | Kochia plant response rating [11, 23] | Plant response rating, Kochia [11, 17] | Plant response rating, Kochia [11, 18] | Bromegrass, Downy plant response rating [12, 15] | Plant response rating, Bromegrass, Downy [12, 16] | Plant response rating, Bromegrass, Downy [12, 17] | Plant response rating, Bromegrass, Downy [12, 19] | Plant response rating, Bromegrass, Downy [12, 20] | Bromegrass, Downy plant response rating [12, 21] | Bromegrass, Downy plant response rating [12, 22] | Plant response rating, Sunflower [13, 24] | Plant response rating, Sunflower [13, 25] | Sunflower plant response rating ([13]; 8 g ai/ha, scale 0 to 100) | Sunflower plant response rating ([13]; 16 g ai/ha, scale 0 to 100)
100: Plant response rating, Corn [1, 17] | Plant response rating, Corn [1, 18] | Plant response rating, Surinam Grass [3, 17] | Plant response rating, Surinam Grass [3, 18] | Plant response rating, Surinam Grass [3, 20] | Plant response rating, Foxtail, Green [4, 18] | Plant response rating, Blackgrass [7, 17] | Plant response rating, Blackgrass [7, 18] | Plant response rating, Foxtail, Giant [9, 20]
70: Plant response rating, Johnsongrass [5, 19] | Blackgrass plant response rating [7, 15] | Foxtail, Giant plant response rating [9, 22]
98: Plant response rating, Johnsongrass [5, 18] | Plant response rating, Foxtail, Giant [9, 18] | Plant response rating, Cupgrass, Woolly [14, 20]
60: Cupgrass, Woolly plant response rating [14, 15]
95: Plant response rating, Surinam Grass [3, 19] | Plant response rating, Foxtail, Green [4, 17] | Plant response rating, Johnsongrass [5, 17] | Plant response rating, Foxtail, Giant [9, 17]
55: Corn plant response rating [1, 22] | Cupgrass, Woolly plant response rating [14, 21]

CCc1c(C)c(-c2ccc(Br)cc2)nn1-c1c(O)cnn(C)c1=O [Compound 83]
80: Plant response rating, Foxtail, Green [4, 19] | Plant response rating, Blackgrass [7, 19] | Foxtail, Giant plant response rating [9, 15] | Foxtail, Giant plant response rating [9, 26]
65: Corn plant response rating [1, 15] | Foxtail, Green plant response rating [4, 23] | Johnsongrass plant response rating [5, 15] | Cupgrass, Woolly plant response rating [14, 15] | Cupgrass, Woolly plant response rating [14, 26]
75: Plant response rating, Bromegrass, Downy [12, 17]
50: Kochia plant response rating [11, 26]
45: Corn plant response rating [1, 22]
90: Surinam Grass plant response rating [3, 22] | Foxtail, Giant plant response rating [9, 23] | Cupgrass, Woolly plant response rating [14, 22]
55: Surinam Grass plant response rating [3, 26] | Johnsongrass plant response rating [5, 26] | Bromegrass, Downy plant response rating [12, 23]
40: Foxtail, Green plant response rating [4, 26]
85: Surinam Grass plant response rating [3, 15] | Johnsongrass plant response rating [5, 22] | Plant response rating, Bromegrass, Downy [12, 18]
98: Plant response rating, Corn [1, 17] | Plant response rating, Surinam Grass [3, 19] | Plant response rating, Foxtail, Green [4, 17] | Plant response rating, Johnsongrass [5, 17] | Plant response rating, Johnsongrass [5, 20] | Plant response rating, Blackgrass [7, 20] | Plant response rating, Cupgrass, Woolly [14, 17]
95: Corn plant response rating [1, 23] | Plant response rating, Corn [1, 19] | Plant response rating, Corn [1, 20] | Plant response rating, Johnsongrass [5, 19] | Blackgrass plant response rating [7, 23] | Plant response rating, Blackgrass [7, 17] | Cupgrass, Woolly plant response rating [14, 23]
70: Foxtail, Green plant response rating [4, 22] | Johnsongrass plant response rating [5, 23] | Blackgrass plant response rating [7, 15]
100: Plant response rating, Corn [1, 18] | Surinam Grass plant response rating [3, 23] | Plant response rating, Surinam Grass [3, 17] | Plant response rating, Surinam Grass [3, 18] | Plant response rating, Surinam Grass [3, 20] | Plant response rating, Foxtail, Green [4, 18] | Plant response rating, Foxtail, Green [4, 20] | Plant response rating, Johnsongrass [5, 18] | Plant response rating, Blackgrass [7, 18] | Plant response rating, Foxtail, Giant [9, 17] | Plant response rating, Foxtail, Giant [9, 18] | Plant response rating, Foxtail, Giant [9, 19] | Plant response rating, Foxtail, Giant [9, 20] | Foxtail, Giant plant response rating [9, 22] | Plant response rating, Kochia [11, 19] | Plant response rating, Kochia [11, 20] | Kochia plant response rating [11, 22] | Plant response rating, Cupgrass, Woolly [14, 18] | Plant response rating, Cupgrass, Woolly [14, 19] | Plant response rating, Cupgrass, Woolly [14, 20]
10: Bromegrass, Downy plant response rating [12, 15]
30: Blackgrass plant response rating [7, 22] | Plant response rating, Bromegrass, Downy [12, 20]
60: Foxtail, Green plant response rating [4, 15]
20: Plant response rating, Pigweed [2, 18] | Plant response rating, Bromegrass, Downy [12, 19]
0: Corn plant response rating [1, 26] | Pigweed plant response rating [2, 15] | Pigweed plant response rating [2, 23] | Plant response rating, Pigweed [2, 17] | Pigweed plant response rating [2, 26] | Plant response rating, Pigweed [2, 19] | Plant response rating, Pigweed [2, 20] | Pigweed plant response rating [2, 22] | Galium plant response rating [6, 27] | Plant response rating, Galium [6, 24] | Plant response rating, Galium [6, 25] | Galium plant response rating ([6]; 16 g ai/ha, scale 0 to 100) | Blackgrass plant response rating [7, 26] | Morningglory plant response rating [8, 15] | Morningglory plant response rating [8, 23] | Plant response rating, Morningglory [8, 17] | Plant response rating, Morningglory [8, 18] | Morningglory plant response rating [8, 26] | Plant response rating, Morningglory [8, 19] | Plant response rating, Morningglory [8, 20] | Morningglory plant response rating [8, 22] | Nightshade, E. B. plant response rating [10, 27] | Plant response rating, Nightshade, E. B. [10, 24] | Plant response rating, Nightshade, E. B. [10, 25] | Nightshade, E. B. plant response rating ([10]; 16 g ai/ha, scale 0 to 100) | Kochia plant response rating [11, 15] | Kochia plant response rating [11, 23] | Plant response rating, Kochia [11, 17] | Plant response rating, Kochia [11, 18] | Bromegrass, Downy plant response rating [12, 26] | Bromegrass, Downy plant response rating [12, 22] | Sunflower plant response rating [13, 27] | Plant response rating, Sunflower [13, 24] | Plant response rating, Sunflower [13, 25] | Sunflower plant response rating ([13]; 16 g ai/ha, scale 0 to 100)
